According to PubChem BioAssay AID328 (DTP/NCI, 2004):
Where “and” joins values, the source holds several entries; their conditions need not be identical. Equal entries are not always repeated. Inconclusive results and toxic doses are left out.

System: BDF1 mice, P388 leukemia ip, median survival T/C
Assay: NCI In Vivo Anticancer Drug Screen. Data for tumor model P388 Leukemia (intraperitoneal) in B6D2F1 (BDF1) mice
Conditions: endpoint: median survival time, higher = longer survival
Summary of the method: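 Transplantable tumour in mice; compound vs vehicle dosing; survival scored; ratio of treated to control reported.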

[1] = dose: 100.0 mg/kg/injection, schedule: Q04DX003 (ip), vehicle: Klucel (hydroxypropylcellulose) (HPC)
[2] = dose: 6.25 mg/kg/injection, schedule: Q01DX009 (ip), vehicle: saline with Tween-80
[3] = dose: 12.5 mg/kg/injection, schedule: Q01DX009 (ip), vehicle: saline with Tween-80
[4] = dose: 25.0 mg/kg/injection, schedule: Q01DX009 (ip), vehicle: saline with Tween-80
[5] = dose: 50.0 mg/kg/injection, schedule: Q04DX003 (ip), vehicle: saline with Tween-80
[6] = dose: 100.0 mg/kg/injection, schedule: Q01DX009 (ip), vehicle: saline with Tween-80
[7] = dose: 100.0 mg/kg/injection, schedule: Q04DX003 (ip), vehicle: saline with Tween-80
[8] = dose: 200.0 mg/kg/injection, schedule: Q01DX009 (ip), vehicle: saline with Tween-80
[9] = dose: 200.0 mg/kg/injection, schedule: Q04DX003 (ip), vehicle: saline with Tween-80
[10] = dose: 400.0 mg/kg/injection, schedule: Q01DX009 (ip), vehicle: saline with Tween-80
[11] = dose: 25.0 mg/kg/injection, schedule: Q01DX009 (ip), vehicle: saline
[12] = dose: 50.0 mg/kg/injection, schedule: Q01DX009 (ip), vehicle: saline with Tween-80

Compound: CCCCCCCCCC(=O)OCC1OC(=O)C(C)N(C)C(=O)CN(C)C(=O)C2C(=O)CC(C)N2C(=O)C(C(C)C)NC(=O)C1NC(=O)c1c2nc3c(C(=O)NC4C(=O)NC(C(C)C)C(=O)N5C(C)CC(OC(=O)CCCCCCCCC)C5C(=O)N(C)CC(=O)N(C)C(C(C)C)C(=O)OC4C)ccc(C)c3oc-2c(C)c(=O)c1N (configuration not stated)
- T/C (dose: 0.1 mg/kg/injection, schedule: Q01DX009 (ip), vehicle: saline with Tween-80): 105 % of control
- T/C (dose: 0.2 mg/kg/injection, schedule: Q01DX009 (ip), vehicle: saline with Tween-80): 93 % of control
- T/C (dose: 0.3 mg/kg/injection, schedule: Q04DX003 (ip), vehicle: saline with Tween-80): 107 % of control
- T/C (dose: 0.4 mg/kg/injection, schedule: Q01DX009 (ip), vehicle: saline with Tween-80): 89 % of control
- T/C (dose: 0.6 mg/kg/injection, schedule: Q04DX003 (ip), vehicle: saline with Tween-80): 92 % of control
- T/C (dose: 0.8 mg/kg/injection, schedule: Q01DX001 (ip), vehicle: saline with Tween-80): 98 % of control
- T/C (dose: 0.8 mg/kg/injection, schedule: Q01DX009 (ip), vehicle: saline with Tween-80): 96 % of control
- T/C (dose: 1.6 mg/kg/injection, schedule: Q01DX001 (ip), vehicle: saline with Tween-80): 107 % of control
- T/C (dose: 1.6 mg/kg/injection, schedule: Q01DX009 (ip), vehicle: saline with Tween-80): 117 % of control
- T/C (dose: 2.4 mg/kg/injection, schedule: Q04DX003 (ip), vehicle: saline with Tween-80): 96 % of control
- T/C (dose: 3.2 mg/kg/injection, schedule: Q01DX001 (ip), vehicle: saline with Tween-80): 100 % of control
- T/C (dose: 4.8 mg/kg/injection, schedule: Q04DX003 (ip), vehicle: saline with Tween-80): 92 % of control
- T/C (dose: 6.4 mg/kg/injection, schedule: Q01DX001 (ip), vehicle: saline with Tween-80): 100 % of control
- T/C (dose: 12.8 mg/kg/injection, schedule: Q01DX001 (ip), vehicle: saline with Tween-80): 97 % of control

Compound: CC(C)COC(=O)c1ccccc1O
- T/C (dose: 75.0 mg/kg/injection, schedule: Q01DX009 (ip), vehicle: Klucel (hydroxypropylcellulose) (HPC)): 109 % of control
- T/C [1]: 111 % of control
- T/C (dose: 150.0 mg/kg/injection, schedule: Q01DX009 (ip), vehicle: Klucel (hydroxypropylcellulose) (HPC)): 90 % of control
- T/C (dose: 200.0 mg/kg/injection, schedule: Q04DX003 (ip), vehicle: Klucel (hydroxypropylcellulose) (HPC)): 92 % of control
- T/C (dose: 300.0 mg/kg/injection, schedule: Q01DX009 (ip), vehicle: Klucel (hydroxypropylcellulose) (HPC)): 109 % of control

Compound: CC(=O)CC(OC(=O)c1cc([N+](=O)[O-])cc([N+](=O)[O-])c1)(C(F)(F)F)C(F)(F)F
- T/C [2]: 100 % of control
- T/C [3]: 118 % of control
- T/C [4]: 118 % of control

Compound: CC1CC[N-]CC1.CC1CC[N-]CC1.[Br][Pt+2]([Br])([Br])[Br]
- T/C (dose: 1.56 mg/kg/injection, schedule: Q01DX009 (ip), vehicle: saline with Tween-80): 100 % of control
- T/C (dose: 3.12 mg/kg/injection, schedule: Q01DX009 (ip), vehicle: saline with Tween-80): 94 % of control
- T/C (dose: 3.12 mg/kg/injection, schedule: Q04DX003 (ip), vehicle: saline with Tween-80): 97 % of control
- T/C [2]: 107 % of control
- T/C (dose: 6.25 mg/kg/injection, schedule: Q04DX003 (ip), vehicle: saline with Tween-80): 91 % of control and 108 % of control
- T/C (dose: 12.5 mg/kg/injection, schedule: Q04DX003 (ip), vehicle: saline with Tween-80): 100 % of control
- T/C (dose: 25.0 mg/kg/injection, schedule: Q04DX003 (ip), vehicle: saline with Tween-80): 117 % of control
- T/C [5]: 91 % of control and 121 % of control

Compound: COc1cc(/C=N/Nc2ccc([N+](=O)[O-])cc2)cc(OC)c1OC
- T/C [5]: 100 % of control
- T/C [6]: 95 % of control
- T/C [7]: 95 % of control
- T/C [8]: 95 % of control
- T/C [9]: 105 % of control
- T/C [10]: 100 % of control

Compound: O=C1OC(=O)C2C3C=CC(O3)C12 (configuration not stated)
- T/C (dose: 3.28 mg/kg/injection, schedule: Q04DX003 (ip), vehicle: saline): 100 % of control
- T/C (dose: 6.25 mg/kg/injection, schedule: Q01DX009 (ip), vehicle: saline): 110 % of control
- T/C (dose: 6.56 mg/kg/injection, schedule: Q04DX003 (ip), vehicle: saline): 100 % of control
- T/C (dose: 12.5 mg/kg/injection, schedule: Q01DX009 (ip), vehicle: saline): 104 % of control and 105 % of control
- T/C (dose: 13.12 mg/kg/injection, schedule: Q04DX003 (ip), vehicle: saline): 100 % of control
- T/C [11]: 90 % of control and 104 % of control
- T/C (dose: 35.0 mg/kg/injection, schedule: Q01DX009 (ip), vehicle: saline): 104 % of control

Compound: O=C(/C=C/c1ccc(Br)cc1)c1ccc(Cl)cc1
- T/C [6]: 100 % of control
- T/C [7]: 100 % of control
- T/C [8]: 110 % of control
- T/C [9]: 100 % of control
- T/C [10]: 100 % of control
- T/C (dose: 400.0 mg/kg/injection, schedule: Q04DX003 (ip), vehicle: saline with Tween-80): 90 % of control

Compound: C[CH2][Sn]([c]1ccccc1)([c]1ccccc1)[c]1ccccc1
- T/C [3]: 104 % of control
- T/C [4]: 109 % of control
- T/C [12]: 104 % of control

Compound: O=C(O)CSC(CC(=O)O)C(F)(F)C(F)(F)C(F)(F)F (configuration not stated)
- T/C [11]: 90 % of control
- T/C (dose: 25.0 mg/kg/injection, schedule: Q04DX003 (ip), vehicle: saline): 109 % of control
- T/C (dose: 50.0 mg/kg/injection, schedule: Q01DX009 (ip), vehicle: saline): 100 % of control
- T/C (dose: 50.0 mg/kg/injection, schedule: Q04DX003 (ip), vehicle: saline): 109 % of control
- T/C (dose: 75.0 mg/kg/injection, schedule: Q01DX009 (ip), vehicle: saline): 110 % of control
- T/C (dose: 100.0 mg/kg/injection, schedule: Q01DX009 (ip), vehicle: saline): 95 % of control and 115 % of control
- T/C (dose: 100.0 mg/kg/injection, schedule: Q04DX003 (ip), vehicle: saline): 109 % of control
- T/C (dose: 150.0 mg/kg/injection, schedule: Q01DX009 (ip), vehicle: saline): 120 % of control
- T/C (dose: 200.0 mg/kg/injection, schedule: Q01DX009 (ip), vehicle: saline): 120 % of control
- T/C (dose: 300.0 mg/kg/injection, schedule: Q01DX009 (ip), vehicle: saline): 110 % of control
- T/C (dose: 400.0 mg/kg/injection, schedule: Q04DX003 (ip), vehicle: saline): 122 % of control

Compound: COC(=O)CCCC1=NC2=CC=CC3=NC(C)=NC(=N1)N23
- T/C [4]: 110 % of control
- T/C [6]: 99 % of control

Compound: CCOc1ccc(-c2cc(C)n(C)[n+]2C)cc1
- T/C [3]: 100 % of control
- T/C [4]: 98 % of control
- T/C [12]: 92 % of control

Compound: COc1ccc(NCNc2ccc(OC)cc2)cc1
- T/C (dose: 25.0 mg/kg/injection, schedule: Q04DX003 (ip), vehicle: Klucel (hydroxypropylcellulose) (HPC)): 110 % of control
- T/C (dose: 50.0 mg/kg/injection, schedule: Q04DX003 (ip), vehicle: Klucel (hydroxypropylcellulose) (HPC)): 105 % of control
- T/C [1]: 110 % of control

Compound: O=C(Nc1ccccc1)c1c(O)[nH]c(=S)[nH]c1=O
- T/C (dose: 50.0 mg/kg/injection, schedule: Q01DX005 (ip), vehicle: saline with Tween-80): 194 % of control

Compound: CCCCCCCCCC(=O)NN1CCOCC1
- T/C (dose: 100.0 mg/kg/injection, schedule: Q01DX001 (ip), vehicle: saline with Tween-80): 104 % of control
- T/C (dose: 200.0 mg/kg/injection, schedule: Q01DX001 (ip), vehicle: saline with Tween-80): 120 % of control
- T/C (dose: 400.0 mg/kg/injection, schedule: Q01DX001 (ip), vehicle: saline with Tween-80): 104 % of control

Compound: C#CC(c1ccccc1)(c1ccccc1)n1ccnc1
- T/C [12]: 98 % of control
- T/C [6]: 100 % of control
- T/C [8]: 98 % of control

Compound: C1CCC2[N-]CC3CCCCC3[N-]CC3CCCCC3[N-]CC3CCCCC3[N-]CC2C1.[Ni+2].[O-][Cl+3]([O-])([O-])O (configuration not stated)
- T/C (dose: 0.75 mg/kg/injection, schedule: Q01DX009 (ip), vehicle: saline): 102 % of control
- T/C (dose: 1.5 mg/kg/injection, schedule: Q01DX009 (ip), vehicle: saline): 110 % of control
- T/C (dose: 3.0 mg/kg/injection, schedule: Q01DX009 (ip), vehicle: saline): 102 % of control
- T/C (dose: 6.0 mg/kg/injection, schedule: Q01DX009 (ip), vehicle: saline): 105 % of control
